These results are taken from PubChem BioAssay AID507.

The test system of the assay is Human MGC4172 (short-chain dehydrogenase/reductase, DHRS11). Description: DHRS11 SDR ligand binding via Tm shift – biophysical, DSF, SYPRO orange, recombinant human protein (AID 507). Conditions: DSF SYPRO orange thermal shift, at 100 µM, protein 2 µM, buffer 10 mM HEPES, pH 7.5, NaCl 150 mM, NADPH 200 µM, stronger effect = higher value.

Each structure is given as a SMILES string.

Turning to `CN(CCOc1ccc(CC2SC(=O)NC2=O)cc1)c1ccccn1` (stereo unspecified), the Tm shift is 2.3 Celsius.
